Reference: patent US7358233B2, “Tetronic acid derivative” (Toudai TLO, Ltd, priority 2001, dated 2008)

Tests used:
[1] = system: GRP78; experiment: Western blotting of GRP78 induction in HT-29 cells under endoplasmic reticulum stress; format: cell-based; conditions: pretreated 30 min, 18 hours
Description: (§1) Specifically, […] HT-29 and HT1080 were cultured in RPMI1640 medium and pretreated for 30 min with 3 μM and 30 μM VST. Next, the GRP78 level was detected 18 hours after each endoplasmic reticulum stress treatment by Western blotting (FIG. 10). […] This phenomenon could be elucidated for the first time by the use of VST.

[2] = system: GRP78 promoter; experiment: GRP78 promoter luciferase reporter analysis in HeLa78C6 cells, with tunicamycin-induced endoplasmic reticulum stress; format: cell-based, human
Description: Screening for natural substances that may regulate the expression of GRP78 was performed. Specifically, herbal medicines, and respective metabolites of fungus and actinomyces were prepared as test samples. A screening system was prepared as follows. A GRP78 promoter region (−132 to +7) comprising three ERSE was inserted into the KpnI-BglII site of the multicloning site of pGL3-basic vector (Promega), and a luciferase gene was linked as a reporter gene downstream of the GRP78 promoter to construct a vector. […]
The cell suspension (100 μL) was dispensed into each well of a 96-well plate and incubated at 37° C. in 5% CO2 for 6 hours. […] Then, luciferase activity of the cells was measured using a luciferase measurement kit (Luciferase Assay System: Promega, cat# E1501) following the instruction attached to the kit.
The main culture was separated into culture supernatant and mycelial cake by centrifugation. Similar to Example 1, the activities to suppress GRP78 expression were measured by the reporter analysis method for the culture supernatant and mycelial cake product that was obtained by homogenizing the mycelial cake, respectively. […] Then, luciferase activity of the cells was measured using a luciferase measurement kit.
Using pure VST purified in Example 3, its activity to suppress GRP78 promoter expression was quantitated. […]

[3] = system: HSP70 heat shock protein; experiment: Transcriptional activity of HSP70 (no data shown); format: cell-based
[4] = system: SUSM-1; experiment: Direct growth suppression, MTT method; format: cell-based; conditions: Homo sapiens, 24 hours, read-out: IC50 of VST
Text: (§2) In this Example, HeLa cells and various other culture cells were used to measure the survival rate during the above-mentioned reporter analysis and VST addition. Specifically, in addition to HeLa cells (human cervical cancer cells), MCF-7 (human breast cancer cells), PC12NH (rat pheochromocytoma), MDA-MB-231 (human breast cancer cells), TIG-3 (human normal fibroblast cells), HeLa 786C cells (human cervical cancer cells), Saos-2 (telomerase and p53-deficient human cancer cells) and SUSM-1 (telomerase-deficient human cancer cells) were used.
(§3) The direct growth suppression activity of VST on these cells was measured using the MTT method. 100 μL cell suspension (5×10^4/mL) of each of the above-mentioned cells was dispensed into each well of a 96-well plate and cultured for 6 hours at 37° C. After culturing, VST solution diluted stepwise as in Example 4 was added thereto and cultured for another 24 hours. After culturing for 24 hours, 0.05 g/mL MTT solution (10 μL) was added to each well and incubation was performed at 37° C. for 4 hours. The medium was then removed, DMSO (100 μL) was added, and the absorbance at 530 nm was measured (FIG. 8).

[5] = system: HeLa786C; experiment: Direct growth suppression, MTT method; format: cell-based; conditions: Homo sapiens, 24 hours, read-out: IC50 of VST
Text: as §2, §3

[6] = system: HeLa cells; experiment: Direct growth suppression, MTT method; format: cell-based; conditions: Homo sapiens, 24 hours, read-out: IC50 of VST
Text: as §2, §3

[7] = system: Saos-2; experiment: Direct growth suppression, MTT method; format: cell-based; conditions: Homo sapiens, 24 hours, read-out: IC50 of VST
Text: as §2, §3

[8] = system: MDA-MB-231; experiment: Direct growth suppression, MTT method; format: cell-based; conditions: Homo sapiens, 24 hours, read-out: IC50 of VST
Text: as §2, §3

[9] = system: MCF-7; experiment: Direct growth suppression, MTT method; format: cell-based; conditions: Homo sapiens, MCF7, 24 hours, read-out: IC50 of VST
Text: as §2, §3

[10] = system: GRP78; experiment: Western blotting of GRP78 induction in HT1080 cells under endoplasmic reticulum stress; format: cell-based; conditions: pretreated 30 min, 18 hours
Description: as §1

IC50 [5]: 52.9 µM
IC50 [6]: > 100 µM
IC50 [8]: > 100 µM
IC50 [9]: > 100 µM
SMILES: CC/C1=C\C(CO)CC(C)C(OC2CC(O)C(OC3CC(OC)C(OC4CC(O)C(O)C(C)O4)C(C)O3)C(C)O2)C(C)CCCC2(C)C=C(C)C(C)CC23OC(=O)C(=C3O)C(=O)C2(CC)C1C(C)=CC1C(O)CC(=O)C(C)C12 (stereo not shown) [VST, versipelostatin]
induction of GRP78 by 2-DG ([1]; 3 μM VST): inhibits the induction of GRP78
GRP78 induction due to tunicamycin treatment ([1]; 30 μM VST): did not inhibit GRP78 induction
suppression of the increase of luciferase activity (GRP78 promoter expression) due to tunicamycin ([2]; sample added 30 min before tunicamycin 2 μg/mL, 18 hours): suppressed in concordance with the increase in VST concentration
luciferase expression from the GRP78 promoter, VST alone ([2]; without tunicamycin addition): did not affect the expression of luciferase
influence on the transcriptional activity of HSP70 heat shock protein [3]: no influence
IC50 [4]: > 100 µM
IC50 [7]: > 100 µM
induction of GRP78 by 2-DG ([10]; 3 μM VST): inhibits the induction of GRP78
GRP78 induction due to tunicamycin treatment ([10]; 30 μM VST): did not inhibit GRP78 induction
